{"source": "patent US20110021471A1", "about": "“REDUCING Abeta42 LEVELS AND Abeta AGGREGATION” (priority 2007, published 2011)", "key": {"APP(C100)-Flag": {"molecular_target": "T1, APP(C100)-Flag (Homo sapiens, UniProt P05067)", "T1 construct": "APP(C100)-Flag, comprising the 99 C-terminal residues of APP plus a methionine at the N-terminus; added methionine (N)", "T1 sequence (P05067 672-770 limits assumed)": "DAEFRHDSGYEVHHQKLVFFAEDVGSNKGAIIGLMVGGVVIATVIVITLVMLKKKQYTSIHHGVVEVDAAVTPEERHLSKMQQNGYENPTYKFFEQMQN", "experiment": "Photoaffinity labelling of APP(C100)-Flag and competition", "format": "binding", "method": "(§1) FIG. 1. […] The top panel is for anti-biotin staining; the middle panel is for anti-FLAG staining; and the bottom panel is an overlay of anti-biotin (red and anti-Flag green, LiCor Odyssey imaging). (E) Same samples as in D, but analyzed using an ELISA. Following crosslinking, C100Flag and N100 Flag were captured using anti-FLAG plate, and biotin incorporation was measured using streptavidin-HRP. […] Fen-B (50 μM) was crosslinked to Aβ (10 μM). Biotin labeling was measured following capture with an anti-Aβ1-16 antibody and detection with streptavidin-HRP.\n(§2) Photoaffinity labelling. All experiments used the following general protocol. Samples (recombinant or synthetic peptides, cell lysates and membrane preparations) were exposed in borosilicate test tubes to ultraviolet light (350 nm) in a Rayonet Photoreactor R100 (RPR-3500 lamps, Southern New England Ultra Violet Company) in a cold room (4° C.) for 30 minutes or as otherwise noted. Crosslinked samples were analyzed by ELISA for biotin incorporation, or analyzed directly by SDS-PAGE (Criterion-XT, Bio-Rad), or after precipitation with streptavidin ultralink plus beads (Pierce). After immunblotting, proteins were detected using chemiluminesence (ECL Plus, GEHealthcare) or near-infrared fluorescence (LiCor Odyssey). Full-length APP and APP CTFs (CTF83, CTF99) were detected with CT20, a rabbit polyclonal antibody against the C-terminus of APP. Biotin was detected with an affinity-purified rabbit polyclonal antibody (Bethyl). Cell-based screens for amyloid-β modulation. Human H4 neuroglioma cells (American Type Culture Collection, ATCC) expressing wild-type APP695 protein or CTF105 fused to secreted alkaline phosphatase which is efficiently processed to APP CTFs (CTF83, CTF99) and produce high levels of amyloid-β, were used for the cell-based screens as previously described. Cells were incubated for 5-6 hours in the presence of the various compounds in Opti-Mem culture medium containing 1% fetal bovine serum. Compounds were dissolved in dimethylsulphoxide (DMSO; 0.5% final concentration) and diluted 200-fold. Media was analyzed for various amyloid-β species (40, 42 and total) using ELISAs as described herein. The EC50 values for changes in amyloid-β species were calculated by fitting sigmoid dose-response curves using nonlinear regression in Prism (GraphPad) and are shown as values±s.e.m. Statistical analysis. Data are presented as either percentage control or mean±s.e.m. Results were analyzed using Prism (Graph Pad) with t-tests or one-way analysis of variance analyses (ANOVAs) with Dunnett's post-hoc correction for comparison of multiple samples to a control. Statistical significance is shown as P,0.05 (one asterisk), P,0.01 (two asterisks) or P,0.001 (three asterisks).\nThe ability of a purified, recombinant Flag-tagged γ-secretase substrate derived from APP (APP(C100)-Flag, comprising the 99 C-terminal residues of APP plus a methionine at the N-terminus) to be labeled by Fen-B and Flurbi-BpB was tested."}, "H4Bri-C99 (CTF-3)": {"tested_on": "H4Bri-C99 (CTF-3)", "method": "FIG. 6. […] Parent GSMs and biotin tagged photoactivatable GSMs were evaluated for their effects on Aβ secreted from H4Bri-C99 (CTF-3). Cells were treated with compounds for 6 hours and Aβ measured by ELISA. […] Changes in Aβ (percent control)±s.e.m., n=3.\nas §2"}, "Notch (C100)-Flag": {"molecular_target": "T2, Notch (C100)-Flag (Mus musculus, UniProt Q01705)", "T2 construct": "a recombinant substrate derived from mouse Notch (Notch (C100)-Flag)", "T2 sequence (Q01705 1711-1809 limits assumed)": "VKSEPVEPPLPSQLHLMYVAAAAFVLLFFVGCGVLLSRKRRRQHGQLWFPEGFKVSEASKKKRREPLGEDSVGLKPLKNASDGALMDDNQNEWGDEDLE", "experiment": "Photoaffinity labelling of Notch (C100)-Flag", "format": "binding", "method": "Photoaffinity labelling. All experiments used the following general protocol. Samples (recombinant or synthetic peptides, cell lysates and membrane preparations) were exposed in borosilicate test tubes to ultraviolet light (350 nm) in a Rayonet Photoreactor R100 (RPR-3500 lamps, Southern New England Ultra Violet Company) in a cold room (4° C.) for 30 minutes or as otherwise noted. Crosslinked samples were analyzed by ELISA for biotin incorporation, or analyzed directly by SDS-PAGE (Criterion-XT, Bio-Rad), or after precipitation with streptavidin ultralink plus beads (Pierce). After immunblotting, proteins were detected using chemiluminesence (ECL Plus, GEHealthcare) or near-infrared fluorescence (LiCor Odyssey). Full-length APP and APP CTFs (CTF83, CTF99) were detected with CT20, a rabbit polyclonal antibody against the C-terminus of APP. Biotin was detected with an affinity-purified rabbit polyclonal antibody (Bethyl). Cell-based screens for amyloid-β modulation. […] Media was analyzed for various amyloid-β species (40, 42 and total) using ELISAs as described herein. The EC50 values for changes in amyloid-β species were calculated by fitting sigmoid dose-response curves using nonlinear regression in Prism (GraphPad) and are shown as values±s.e.m. […]"}, "APP-CTF": {"molecular_target": "T3, APP-CTF (Homo sapiens, UniProt P05067)", "T3 construct": "this protein was designated α-secretase-derived APP CTF (CTF83) on the basis of molecular weight; expressed in transfected cells", "T3 sequence (P05067 688-770 limits assumed)": "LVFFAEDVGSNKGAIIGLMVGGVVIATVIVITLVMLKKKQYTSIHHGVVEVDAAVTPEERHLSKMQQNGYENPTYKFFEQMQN", "experiment": "Photoaffinity labelling of APP and APP CTF in H4 cell membrane fractions and competition", "format": "binding", "conditions": "microsomal membrane fractions from H4 cells expressing wild-type APP", "method": "Photoaffinity labelling. All experiments used the following general protocol. Samples (recombinant or synthetic peptides, cell lysates and membrane preparations) were exposed in borosilicate test tubes to ultraviolet light (350 nm) in a Rayonet Photoreactor R100 (RPR-3500 lamps, Southern New England Ultra Violet Company) in a cold room (4° C.) for 30 minutes or as otherwise noted. Crosslinked samples were analyzed by ELISA for biotin incorporation, or analyzed directly by SDS-PAGE (Criterion-XT, Bio-Rad), or after precipitation with streptavidin ultralink plus beads (Pierce). After immunblotting, proteins were detected using chemiluminesence (ECL Plus, GEHealthcare) or near-infrared fluorescence (LiCor Odyssey). Full-length APP and APP CTFs (CTF83, CTF99) were detected with CT20, a rabbit polyclonal antibody against the C-terminus of APP. Biotin was detected with an affinity-purified rabbit polyclonal antibody (Bethyl). Cell-based screens for amyloid-β modulation."}, "[1]": {"molecular_target": "amyloid-β peptides (Aβ1-40, Aβ1-36, Aβ1-28, Flag-Aβ25-36) (Homo sapiens, UniProt P05067)", "experiment": "Photoaffinity labelling of amyloid-β peptides", "format": "binding", "method": "as §1, §2\nBecause the putative binding region of GSMs is also found in full-length APP, labeling of both APP fragments in cells was assayed."}, "γ-secretase": {"molecular_target": "γ-secretase (Homo sapiens, UniProt P49768)", "experiment": "Cell-free in vitro γ-secretase assay", "format": "biochemical", "method": "FIG. 5. Fenofibrate-Biotin (Fen-B) is an Aβ42 raising GSM that labels cell-derived APP-CTF. (A) The effects of fenofibrate and fenofibrate-biotin (Fen-B) on Aβ production were investigated in a cell-free in vitro γ-secretase assay performed as described in the methods. […] Percent control Aβ species±s.e.m., n=2. (B) Fen-B labels APP-CTFs from cells lysates. CHAPSO solubilized membrane fractions from H4 APP-CTF-105-AP cells were irradiated (350 nm) in the presence of Fen-B (50 μM) for 30 minutes. Biotinylated material was precipitated with streptavidin overnight (SAv). Beads were washed (3×) and then incubated with XT sample buffer, heated to 95° C., run on 12% Criterion XT gels, and transferred to nitrocellulose membranes. Blots were probed for biotin (Bethyl) and APP (CT20). Excess drug (Fen-B) and unlableled APP-CTF is detected in the flow-through from the beads (unbound lane). Biotin bound to streptavdin (SAv) is detected by the anti-biotin antibody. APP-CTF-83 is pulled down in lane 2 and is reactive with anti-biotin and anti-APP (CT20).\nCongo red (CR) and chrysamine G (CG), two of the most well characterized amyloid-β dyes, act as GSMs in cell-free γ-secretase assays."}, "[2]": {"molecular_target": "T4, γ-secretase (PSEN1, NCSTN, APH1, PEN2) (UniProt +P49768+Q96BI3+Q9NZ42)", "T4 construct": "made in house; host or cells: CHO c-30 (γ-30) cells", "experiment": "Photoaffinity labelling of purified γ-secretase preparation", "format": "binding", "conditions": "Fen-B 300 μM"}}, "data": [{"compound": "CC(C)(Oc1ccc(C(=O)c2ccc(Cl)cc2)cc1)C(=O)NCCCCCNC(=O)CCCCC1SCC2NC(=O)NC21", "note": "(stereo not drawn) [Fen-B, N-(5-(2-(4-(4-chlorobenzoyl)phenoxy)-2-methylpropanamido)pentyl)-5-(2-oxo-hexahydro-1H-thieno[3,4-d]imidazol-4-yl)pentanamide]", "values": [{"measurement": "labeling of APP(C100)-Flag", "setting": "APP(C100)-Flag", "result": "label a recombinant APP c-secretase substrate (APP(C100)-Flag) with similar potency"}, {"measurement": "labeling of CTF-γ (CTF-50)", "setting": "APP(C100)-Flag; peptides 5 μM, Fen-B 25 μM, 30 minutes", "result": "no evidence for binding to CTF-γ"}, {"measurement": "Toxicity, based on cell morphology and XTT assay", "setting": "H4Bri-C99 (CTF-3)", "result": "toxic at higher doses"}, {"measurement": "Aβ42 increase", "setting": "H4Bri-C99 (CTF-3); 33 μM, 6 hours", "result": "~200", "unit": "%"}, {"measurement": "labeling of Notch (C100)-Flag", "setting": "Notch (C100)-Flag", "result": "less efficient than Fen-B labeling of the APP(C100)-Flag"}, {"measurement": "labeling of full-length APP and APP CTFs", "setting": "APP-CTF", "result": "labeled full-length APP and APP CTFs"}, {"measurement": "labeling of Aβ1-28", "setting": "[1]", "result": "did not label"}, {"measurement": "labeling of Aβ1-36", "setting": "[1]", "result": "efficiently labeled"}, {"measurement": "labeling of Aβ1-40", "setting": "[1]", "result": "efficiently labeled"}, {"measurement": "labeling of Flag-tagged Aβ25-36", "setting": "[1]", "result": "preferentially label"}, {"measurement": "Aβ42 in cell-free γ-secretase assay", "setting": "γ-secretase", "result": "raise Aβ42 with similar potencies"}, {"measurement": "labeling of γ-secretase components", "setting": "[2]", "result": "Absence of PS1, NCT, APH1, and Pen2 labeling"}]}]}
